Measured values from patent US20120238488A1, “COMPOUNDS AND METHODS FOR TREATING NEOPLASIA” (priority 2009, published 2012).
Where two headings read alike, the source gives them in different places.

Legend:
PCJ (Prostate) = experiment: SRB assay, PCJ; assay type: cell-based; conditions: Homo sapiens, 48 h; for CC50: read-out: LC50; for GI50 / IC (TGI): PCJ, SRB
Description: (§1) SRB assays were performed according to standard National Cancer Institute Guidelines. Briefly, human tumor cells from different cancer panels were seeded into 96 well plates in 100 μL (plating densities ranging from 5-40,000 cells/well depending on the doubling time of individual cell lines) in serum-containing media for twenty-four hours prior to the addition of the compounds to be assayed. After 24 hours, one plate of each cell line was fixed in situ with trichloroacetic acid (TCA). The fixed slides were used to determine the cell population for each cell line at the time of drug addition (Tz). Each compound to be tested was solubilized in DMSO and the desired concentration was then added to the medium and diluted serially 1:10 to provide a total of five or ten drug concentrations plus control (in a final volume of 200 μL). The starting dose before any dilution was 100 uM for all compounds.
(§2) Following drug addition, each culture was incubated for forty-eight hours. The assay was terminated with the addition of cold TCA. The supernatant was discarded, and the plates were washed with tap water and air dried. Sulforhodamine B (SRB) solution was then added to each well. After staining, the bound stain was solubilized and the absorbance was read on an automated plate reader at a wavelength of 515 nm.
(§3) Using the absorbance measurements [time zero, (Tz), control growth, (C), and test growth in the presence of drug at the ten concentration levels (Ti)], the percentage growth was calculated at each of the drug concentrations levels. Percentage growth inhibition was calculated as:
(§4) [(Ti−Tz)/(C−Tz)]×100 for concentrations for which Ti>/=Tz
(§5) [(Ti−Tz)/Tz]×100 for concentrations for which Ti<Tz.
(§6) Three dose response parameters were calculated for each experimental agent. Growth inhibition of 50% (GI50) was calculated from [(Ti−Tz)/(C−Tz)]×100=50, which was the drug concentration resulting in a 50% reduction in the net protein increase (as measured by SRB staining) in control cells during the drug. The drug concentration resulting in total growth inhibition (TGI) was calculated from Ti=Tz. The LC50 (concentration of drug resulting in a 50% reduction in the measured protein at the end of the drug treatment as compared to that at the beginning) indicating a net loss of cells following treatment was calculated from [(Ti−Tz)/Tz]×100=−50.
(§7) Values were calculated for each of these three parameters when the level of activity was reached; however, if the effect was not reached or was exceeded, the value for that parameter was expressed as greater or less than the maximum or minimum concentration tested.
(§8) Table 4 summarizes results characterizing the effects of compound Nos. 120, 12, 61, 1, and 56 on GI50, which measures the cell growth inhibitory power of the compound, TGI, which measures cytostatic effect (TGI) and LC50, which signifies cytotoxic effect. Each of these parameters in Table 4 was calculated in a sulforhodamine B (SRB) assay, which provides a colorimetric measure of a compound's anti-cancer activity. SRB assays were performed with compounds of the invention in 22 different cell lines (shaded in light gray in Table 4), which represent nine different tumor panels (lung, melanoma, ovary, prostate, CNS, breast, pancreas colon and renal). Ouabain and digoxin were used as controls. Paclitaxel was added as a non-Na^+K^+-ATPase inhibitor control.

ADRRES (Ovary) = experiment: SRB assay, ADRRES (multidrug resistant NCI-ADR-RES); assay type: cell-based, human; conditions: for TGI / GI50: ADRRES; for TGI / CC50 / GI50: 48 h; for CC50 / GI50: Homo sapiens, NCI/ADR-RES; for CC50: read-out: LC50
Description: NCI-ADR-RES cells have been classified as ovarian cancer cells by the National Cancer Institute.
as §1, §2, §3, §4, §5, §6, §7, §8
Table 4 also presents results with Compound Nos. 120, 12, 61, 1, and 56 in a well characterized drug resistant cell line, NCI-ADR-RES, that expresses high levels of MDR1 and P-glycoprotein.

DU145 (Prostate) = experiment: SRB assay, DU145; assay type: cell-based, human; conditions: for TGI / GI50: DU145, SRB, 48 h; for CC50 / GI50: Homo sapiens; for CC50: DU-145, 48 h, read-out: LC50; for GI50: DU-145
Description: as §1, §2, §3, §4, §5, §6, §7, §8

OVCAR5 (Ovary) = experiment: SRB assay, OVCAR5; assay type: cell-based, human; conditions: for CC50 / GI50: Homo sapiens; for CC50: OVCAR-5, 48 h, read-out: LC50; for GI50: OVCAR-5; for GI50 / TGI: OVCAR5, SRB, 48 h
Description: as §1, §2, §3, §4, §5, §6, §7, §8

MB435 (Melanoma) = experiment: SRB assay, MB435; assay type: cell-based, human; conditions: 48 h; for CC50 / GI50: Homo sapiens; for CC50: read-out: LC50; for GI50 / TGI: MB435, SRB
Description: as §1, §2, §3, §4, §5, §6, §7, §8

ERVK (Lung) = experiment: SRB assay, ERVK; assay type: cell-based, human; conditions: 48 h; for TGI / GI50: ERVK, SRB; for CC50 / GI50: Homo sapiens; for CC50: read-out: LC50
Description: as §1, §2, §3, §4, §5, §6, §7, §8

HCT116 (Colon) = experiment: SRB assay, HCT116; assay type: cell-based; conditions: Homo sapiens; for CC50: HCT-116, 48 h, read-out: LC50; for GI50 / IC (TGI): HCT-116, HCT116, SRB, 48 h
Description: as §1, §2, §3, §4, §5, §6, §7, §8

[1] = test system: Na+/K+-ATPase (Adenosine 5′-Triphosphatase isolated from porcine cerebral cortex); experiment: Na+/K+-ATPase inhibitory activity, colorimetric Adenosine 5'-Triphosphatase Enzymatic Assay; assay type: biochemical
Description: The inhibitory effect of a compound of the invention on ATPase activity was assessed in vitro using the colorimetric Adenosine 5′-Triphosphatase Enzymatic Assay of Sigma (St. Louis, Mo.) according to the manufacturer's instructions. This assay utilizes Adenosine 5′-Triphosphatase isolated from porcine cerebral cortex. Each reaction was performed in a final volume of 250 μl using 0.5 units/ml enzyme in the presence of different inhibitors. […] IC50 values were determined using the Origin® program software (OriginLab, Northampton, Mass.).

A549 (Lung) = experiment: SRB assay, A549; assay type: cell-based, human; conditions: for TGI / GI50: A549, SRB, 48 h; for CC50 / GI50: Homo sapiens; for CC50: A549, 48 h, read-out: LC50
Description: as §1, §2, §3, §4, §5, §6, §7, §8

CAKJ1 (Renal) = experiment: SRB assay, CAKJ1; assay type: cell-based, human; conditions: 48 h; for TGI / GI50: CAKJ1, SRB; for CC50 / GI50: Homo sapiens; for CC50: read-out: LC50
Description: as §1, §2, §3, §4, §5, §6, §7, §8

SKMEL28 (Melanoma) = experiment: SRB assay, SKMEL28; assay type: cell-based, human; conditions: for CC50 / GI50: Homo sapiens; for CC50: SK-MEL-28, 48 h, read-out: LC50; for GI50: SK-MEL-28; for GI50 / TGI: SKMEL28, SRB, 48 h
Description: as §1, §2, §3, §4, §5, §6, §7, §8

OVCAR3 (Ovary) = experiment: SRB assay, OVCAR3; assay type: cell-based, human; conditions: for CC50 / GI50: Homo sapiens; for CC50: OVCAR-3, 48 h, read-out: LC50; for GI50: OVCAR-3; for GI50 / TGI: OVCAR3, SRB, 48 h
Description: as §1, §2, §3, §4, §5, §6, §7, §8

SF268 (CNS) = experiment: SRB assay, SF268; assay type: cell-based; conditions: Homo sapiens; for CC50: read-out: LC50; for IC (TGI): read-out: TGI
Description: as §1, §2, §3, §4, §5, §6, §7, §8

| Structure (SMILES) | CC50 (PCJ (Prostate)) [µM] | GI50 (PCJ (Prostate)) [µM] | IC (TGI) (PCJ (Prostate)) [µM] | TGI (ADRRES (Ovary); SRB) [µM] | CC50 (ADRRES (Ovary)) [µM] | GI50 (ADRRES (Ovary); SRB) [µM] | TGI (DU145 (Prostate)) [µM] | CC50 (DU145 (Prostate)) [µM] | GI50 (DU145 (Prostate)) [µM] | CC50 (OVCAR5 (Ovary)) [µM] | GI50 (OVCAR5 (Ovary)) [µM] | TGI (OVCAR5 (Ovary)) [µM] | CC50 (MB435 (Melanoma)) [µM] | GI50 (MB435 (Melanoma)) [µM] | TGI (MB435 (Melanoma)) [µM] | TGI (ERVK (Lung)) [µM] | CC50 (ERVK (Lung)) [µM] | GI50 (ERVK (Lung)) [µM] | CC50 (HCT116 (Colon)) [µM] | GI50 (HCT116 (Colon)) [µM] | other results |
| --- | --- | --- | --- | --- | --- | --- | --- | --- | --- | --- | --- | --- | --- | --- | --- | --- | --- | --- | --- | --- | --- |
| C[C@]12CCC(=NOCCN)C=C1CCC1C2CC[C@@]2(C)C1CC[C@@H]2O (stereo partly drawn) [Compound 120, (1S,9aR,11aS)-17-hydroxy-10,13-dimethyl-6,7,8,9,10,11,12,13,14,15,16,17-dodecahydro-1H-cyclopenta[a]phenanthren-3(2H)-one O-2-aminoethyl oxime] | 29.4 | 4.57 | 14.2 | 42.91 | 81.9 | 8.73 | 13.54 | 68.5 | 5.87 | 87.1 | 20.5 | 53.80 | 98.9 | 7.29 | 38.95 | 38.23 | ≥ 105 | 4.57 | 39.2 | 4.28 | GI50 in NCI-ADR-RES cells compared to non-resistant MCF-7 cells (ADRRES (Ovary); SRB): the same GI50 value; anti-tumor action in multidrug resistant cell line NCI-ADR-RES (ADRRES (Ovary); SRB, cells express high levels of MDR1 and P-glycoprotein): potent anti-tumor action; IC (TGI) (HCT116 (Colon)): 16.1 µM; Na+K+ ATPase inhibitory activity (in words) [1]: strong Na+K+ ATPase inhibitory activities; IC50 ([1]; 0.5 units/ml enzyme, five concentrations 10^−5 to 10^−9M, read-out: Na+ K+ Inhibitory Activity (IC50)): 0.897 µM; TGI (A549 (Lung)): 62.82 µM; CC50 (A549 (Lung)): ≥ 179 µM; GI50 (A549 (Lung)): 6.91 µM; TGI (CAKJ1 (Renal)): 9.90 µM; CC50 (CAKJ1 (Renal)): 61 µM; GI50 (CAKJ1 (Renal)): 4.91 µM; CC50 (SKMEL28 (Melanoma)): 79.6 µM; GI50 (SKMEL28 (Melanoma)): 19.9 µM; TGI (SKMEL28 (Melanoma)): 49.74 µM; CC50 (OVCAR3 (Ovary)): > 100 µM; GI50 (OVCAR3 (Ovary)): 6.5 µM; TGI (OVCAR3 (Ovary)): 41.51 µM; CC50 (SF268 (CNS); SF-268, 48 h): 20.4 µM; GI50 (SF268 (CNS); SF-268, SF268, SRB, 48 h, read-out: GI50): 4.65 µM; IC (TGI) (SF268 (CNS); SF-268, SF268, SRB, 48 h): 9.08 µM |
| C[C@H]1O[C@@H](O[C@H]2[C@@H](O)C[C@H](O[C@H]3[C@@H](O)C[C@H](O[C@H]4CC[C@@]5(C)[C@H](CC[C@@H]6[C@@H]5C[C@@H](O)[C@]5(C)[C@@H](C7=CC(=O)OC7)CC[C@]65O)C4)O[C@@H]3C)O[C@@H]2C)C[C@H](O)[C@@H]1O [Digoxin, reference compound] | 0.3 | < 0.08 | 0.1 | 0.10 | 0.75 | 0.04 | 0.07 | 0.36 | 0.03 | 0.84 | < 0.01 | 0.43 | 7.69 | 0.07 | 0.53 | 0.09 | 0.68 | < 0.01 | > 50 | < 0.08 | IC (TGI) (HCT116 (Colon)): 0.7 µM; IC50 ([1]; read-out: Na+K+ ATPase inhibitory activity IC50): 0.204 µM; TGI (A549 (Lung)): 0.06 µM; CC50 (A549 (Lung)): 1.14 µM; GI50 (A549 (Lung)): < 0.001 µM; TGI (CAKJ1 (Renal)): 0.07 µM; CC50 (CAKJ1 (Renal)): 0.2 µM; GI50 (CAKJ1 (Renal)): < 0.01 µM; CC50 (SKMEL28 (Melanoma)): > 100 µM; GI50 (SKMEL28 (Melanoma)): 0.08 µM; TGI (SKMEL28 (Melanoma)): 6.50 µM; CC50 (OVCAR3 (Ovary)): 22.2 µM; GI50 (OVCAR3 (Ovary)): < 0.01 µM; TGI (OVCAR3 (Ovary)): 2.65 µM; GI50 (SF268 (CNS); SF-268, 48 h): < 0.08 µM; CC50 (SF268 (CNS); SF-268, 48 h): 0.1 µM; IC (TGI) (SF268 (CNS); SF-268, 48 h): < 0.08 µM |
